# Source: patent publication EP0981362B1, “USE OF GLP-2 AGONISTS ENHANCING F[…] THE UPPER GASTROINTESTINAL TRACT” (1149336 ONTARIO INC., priority 1997, dated 1998)
# Tested on: female CD1 mice
# Experiment: Indomethacin-induced mortality in mice (model dose)
# Type: in vivo
# Conditions: indomethacin 7 mg/kg s.c. bid for two days following overnight fasting; 7-8 week old female CD1 mice; saline-treated control animals
# Method: Indomethacin(1-[p-chlorobenzoyl]-5-methoxy-2-methylindole-3-acetic acic) (Sigma Chemical Co., St Louis MO, lot 74H1212), stock solution was prepared and aliquoted 1 hr before the first injection. The mice were weighed, and then fasted overnight, and given food one hour prior to the first indomethacin injection. Mice were not fasted for the second indomethacin injection. Indomethacin (14.5 mg) was weighed out using a Mettler AE166 scale and dissolved in 1 mL anhydrous ethyl alcohol. The solution was warmed at 37° C for 5 minutes and thoroughly vortexed every minute until fully dissolved. 998.1 uL of stock indomethacin solution was diluted in 41 ml 5% NaHCO3 pH 7.3. […] Indomethacin used in the second injection was stored at -20° C overnight and allowed to thaw at room temperature prior to injection. Mice were injected at the same time (10:00 AM) on both days approximately 1 hr after receiving h[Gly^2]-GLP-2. Animals not receiving indomethacin were administered vehicle alone (250 µl anhydrous ethyl alcohol in 10.5 mL NaHCO3 pH 7.3 - a final injection volume of 0.5 ml was given daily over 2 days). Animals were sacrificed in a CO2 chamber 14 days following the administration of either PBS or h[Gly^2]-GLP-2.
# Pilot experiments were performed to determine an indomethacin dose that reproducibly produced ∼ 50% mortality in mice. […]
smiles,measurement,value
"COc1ccc2c(c1)c(CC(=O)O)c(C)n2C(=O)c1ccc(Cl)cc1 [indomethacin, 1-[p-chlorobenzoyl]-5-methoxy-2-methylindole-3-acetic acic]",mortality,50%
